Reference: patent US20030073850A1, “4-Imidazole derivatives of benzyl and restricted benzyl sulfonamides, sulfamides, ureas, carbamates, and amides and their use” (priority 1998, published 2003)
Where a name gives a salt, the structure may show the parent alone.

Columns and labels:
[1] = target: T1, α1b (hamster receptor expressed in mouse fibroblasts) (Mesocricetus auratus, UniProt P18841); assay: Radioligand binding, [3H]-prazosin, α1b; details: hamster receptor expressed in mouse fibroblasts, [3H]-prazosin; read-out: Radioligand Binding Ki α1b (Hamster)
T1 construct: expressed in transfected cells; host or cells: mouse fibroblasts
T1 sequence (P18841 1-515): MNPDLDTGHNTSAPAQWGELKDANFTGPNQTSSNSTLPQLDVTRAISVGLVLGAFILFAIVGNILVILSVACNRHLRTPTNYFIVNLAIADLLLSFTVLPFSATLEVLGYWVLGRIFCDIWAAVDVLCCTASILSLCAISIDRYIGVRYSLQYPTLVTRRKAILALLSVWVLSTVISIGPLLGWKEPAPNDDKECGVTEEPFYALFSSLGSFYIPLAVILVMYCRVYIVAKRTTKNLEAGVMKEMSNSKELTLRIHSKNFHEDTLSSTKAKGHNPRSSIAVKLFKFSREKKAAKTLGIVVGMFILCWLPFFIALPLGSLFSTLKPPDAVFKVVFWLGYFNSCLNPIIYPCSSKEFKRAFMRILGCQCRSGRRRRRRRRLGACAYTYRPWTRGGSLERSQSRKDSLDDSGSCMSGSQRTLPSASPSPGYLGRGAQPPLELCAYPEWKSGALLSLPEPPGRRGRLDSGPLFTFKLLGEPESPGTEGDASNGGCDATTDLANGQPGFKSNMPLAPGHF
Method: For purposes of discussing a, adrenoceptor subtypes, the IUPHAR convention of using lower case letters to define molecular clones and upper case letters to indicate pharmacologically defined adrenoceptors has been followed. Compounds of formula I were evaluated in radioligand binding assays specific for α1A (rat submaxillary gland), α1b (hamster receptor expressed in mouse fibroblasts) and α1d (rat receptor expressed in mouse fibroblasts) using [^3H]-prazosin as the radioligand as described in Knepper, et al. J. Pharm.

## CC(c1cccc(NS(C)(=O)=O)c1)c1c[nH]cn1.O=C(O)/C=C\C(=O)O (centres unmarked)
other
  melting point: 135 to 136 °C

## C=C(c1cccc(NS(C)(=O)=O)c1)c1c[nH]cn1 (as salt: maleic acid salt) [Example 92, N-{3-[1-(1H-imidazol-4-yl)vinyl]phenyl}methanesulfonamide]
other
  melting point: 167 to 170 °C

## CCS(=O)(=O)Nc1cc(Cc2c[nH]cn2)ccc1C
other
  melting point: 140 to 152 °C

## O=C(O)/C=C\C(=O)O.O=S(=O)(CC(F)(F)F)Nc1cccc(Cc2c[nH]cn2)c1
other
  melting point: 161 to 162 °C

## CS(=O)(=O)Nc1cccc2c1CCC[C@H]2c1c[nH]cn1 [Example 9, (+)-N-[(5R)-5-(1H-imidazol-4-yl)-5,6,7,8-tetrahydro-1-naphthalenyl]methanesulfonamide]
other
  melting point: 118 to 123 °C

## CS(=O)(=O)Nc1cccc2c1CCC=C2c1c[nH]cn1.O=C(O)/C=C\C(=O)O [Example 47, N-[5-(1H-imidazol-4-yl)-7,8-dihydro-1-naphthalenyl]methanesulfonamide, Maleate]
other
  melting point: 161 to 165 °C

## O=C(O)/C=C\C(=O)O.O=S(=O)(CC(F)(F)F)Nc1cccc2c1CCCC2c1c[nH]cn1 (centres unmarked) [Example 20, N-[5,6,7,8-tetrahydro-5-(1H-imidazol-4-yl)-1-naphthalenyl]-2,2,2-trifluoroethanesulfonamide, Maleate]
other
  melting point: 138 to 140 °C
[1]
  Ki: 10 µM

## O=S(=O)(Nc1cccc2c1CCCC2c1c[nH]cn1)C1CC1 (centres unmarked) [Example 27, N-[5,6,7,8-tetrahydro-(1H-imidazol-4-yl)-1-naphthalenyl]cyclopropanesulfonamide, Maleate]
[1]
  Ki: 10 µM

## CCS(=O)(=O)Nc1cccc(Cc2c[nH]cn2)c1O.O=C(O)/C=C\C(=O)O
other
  melting point: 155 to 157 °C

## CS(=O)(=O)Nc1cccc2c1OCCC2c1c[nH]cn1.O=C(O)/C=C\C(=O)O (centres unmarked) [Example 19, N-[4-(1H-imidazol-4-yl)-3,4-dihydro-2H-chromen-8-yl]methanesulfonamide, Maleate]
other
  melting point: 172 to 174 °C

## CCS(=O)(=O)Nc1cc(C)cc(Cc2c[nH]cn2)c1C
other
  melting point: 167 to 169 °C

## Cc1c(Cc2c[nH]cn2)cccc1NS(C)(=O)=O.O=C(O)/C=C\C(=O)O
other
  melting point: 143 to 144 °C

## CS(=O)(=O)Nc1ccc(F)c(Cc2c[nH]cn2)c1.O=C(O)/C=C\C(=O)O
other
  melting point: 146 to 147 °C

## CS(=O)(=O)Nc1c(O)ccc2c1CCCC2c1c[nH]cn1.Cl (centres unmarked) [Example 2, N-[2-hydroxy-5-(1H-imidazol-4-yl)-5,6,7,8-tetrahydro-1-naphthalenyl]methanesulfonamide, Hydrochloride]
other
  melting point: 135 to 137 °C

## CS(=O)(=O)Nc1cccc2c1CCC2c1c[nH]cn1.O=C(O)/C=C\C(=O)O (centres unmarked) [Example 22, N-[1-(1H-imidazol-4-yl)-2,3-dihydro-1H-inden-4-yl]methanesulfonamide, Maleate]
other
  melting point: 168 to 169 °C

## CCCn1cnc(C2CCCc3c2ccc(O)c3NS(C)(=O)=O)c1.Cl (centres unmarked) [Example 7, N-[2-hydroxy-5-(1-propyl-1H-imidazol-4-yl)-5,6,7,8-tetrahydro-1-naphthalenyl]methanesulfonamide, Hydrochloride]
other
  melting point: 128 to 133 °C
[1]
  Ki: 100 µM

## Cl.Cn1cncc1C1CCCc2c1ccc(O)c2NS(C)(=O)=O (centres unmarked) [Example 4, N-[2-hydroxy-5-(1-methyl-1H-imidazol-5-yl)-5,6,7,8-tetrahydro-1-naphthalenyl]methanesulfonamide, Hydrochloride]
other
  melting point: 260 °C

## CS(=O)(=O)Nc1cc(Cc2c[nH]cn2)ccc1O.Cl
other
  melting point: 167 to 169 °C

## CCS(=O)(=O)Nc1cc(Cc2c[nH]cn2)ccc1F
other
  melting point: 122 to 123 °C

## CCS(=O)(=O)Nc1cccc(C(C)c2c[nH]cn2)c1.O=C(O)/C=C\C(=O)O (centres unmarked)
other
  melting point: 114 to 119 °C

## CCS(=O)(=O)Nc1cccc(/C(=C/OC)c2c[nH]cn2)c1.O=C(O)/C=C\C(=O)O [Example 46, N-{3-[(Z)-1-(1H-imidazol-4-yl)-2-methoxyethenyl]phenyl}ethanesulfonamide, Maleate]
other
  melting point: 146 to 148 °C

## CCS(=O)(=O)Nc1cccc(Cc2c[nH]cn2)c1Cl
other
  melting point: 182 to 184 °C

## CCS(=O)(=O)Nc1c(C)ccc2c1CCCC2c1c[nH]cn1 (centres unmarked)
other
  melting point: 196 to 199 °C

## CC(c1cccc(NS(C)(=O)=O)c1)c1c[nH]cn1.Cl (centres unmarked)
other
  melting point: 195 to 196 °C

## CCS(=O)(=O)Nc1cc(Cc2c[nH]cn2)ccc1Cl
other
  melting point: 159 to 160 °C

## CCS(=O)(=O)Nc1cccc(Cc2c[nH]cn2)c1OC
other
  melting point: 185 to 186 °C

## COc1ccc2c(c1NS(C)(=O)=O)CCCC2c1c[nH]cn1.Cl (centres unmarked) [Example 1, N-[5-(1H-imidazol-4-yl)-2-methoxy-5,6,7,8-tetrahydro-1-naphthalenyl]methanesulfonamide hydrochloride]
other
  melting point: 209 to 211 °C

## CCS(=O)(=O)Nc1cc(Br)cc(Cc2c[nH]cn2)c1
other
  melting point: 194 to 196 °C

## Cc1nc(C2CCCc3c2ccc(O)c3NS(C)(=O)=O)c[nH]1.Cl (centres unmarked) [Example 3, N-[2-hydroxy-5-(2-methyl-1H-imidazol-4-yl)-5,6,7,8-tetrahydro-1-naphthalenyl]methanesulfonamide, hydrochloride]
other
  melting point: 233 to 235 °C

## Cl.Cn1cnc(C2CCCc3c2ccc(O)c3NS(C)(=O)=O)c1 (centres unmarked) [Example 5, N-[2-hydroxy-5-(1-methyl-1H-imidazol-4-yl)-5,6,7,8-tetrahydro-1-naphthalenyl]methanesulfonamide Hydrochloride]
other
  melting point: 256 to 258 °C

## CCS(=O)(=O)Nc1cc(Br)cc(Cc2c[nH]cn2)c1C
other
  melting point: 202 to 204 °C

## Cc1cc(Cc2c[nH]cn2)c(C)c(NS(C)(=O)=O)c1
other
  melting point: 197 to 199 °C

## O=S(=O)(CC(F)(F)F)Nc1cccc2c1OCCC2c1c[nH]cn1 (single isomer, unassigned) (as salt: maleic acid salt) [Example 88, 2,2,2-trifluoro-N-[4-(1H-imidazol-4-yl)-3,4-dihydro-2H-chromen-8-yl]ethanesulfonamide]
other
  melting point: 173 to 176 °C

## CCS(=O)(=O)Nc1cc(Cl)cc(Cc2c[nH]cn2)c1Cl
other
  melting point: 182 to 184 °C

## CCS(=O)(=O)Nc1cccc2c1CCCC2c1c[nH]cn1.O=C(O)/C=C\C(=O)O (centres unmarked) [Example 12, N-[5-(1H-imidazol-4-yl)-5,6,7,8-tetrahydro-1-naphthalenyl]ethanesulfonamide Maleate]
other
  melting point: 129 to 132 °C

## N-[5,6,7,8-tetrahydro-5-(1H-imidazol-4-yl)-1-naphthalenyl]-2-methylethanesulfonamide, Maleate [Example 18]
[1]
  Ki: 10 µM

## CCn1cnc(C2CCCc3c2ccc(O)c3NS(C)(=O)=O)c1 (centres unmarked) [Example 6, N-[5-(1-ethyl-1H-imidazol-4-yl)-2-hydroxy-5,6,7,8-tetrahydro-1-naphthalenyl]methanesulfonamide, Hydrochloride]
[1]
  Ki: 100 µM

## CCS(=O)(=O)Nc1ccc(C)c(Cc2c[nH]cn2)c1
other
  melting point: 194 to 196 °C

## CCC(O)(c1cccc(NS(=O)(=O)CC)c1)c1c[nH]cn1 (centres unmarked) [Example 55, N-[3-(1-hydroxy-1-(1H-imidazol-4-yl)propyl)phenyl]ethanesulfonamide]
other
  melting point: 120 to 124 °C
